Test results as given in patent publication US9061004B2, “15-PGDH in colon cancer” (Case Western Reserve University, priority 2009, dated 2015).

How the values were obtained:
15-PGDH mRNA = conditions: cited from earlier work
colorectal adenomas = assay: Adenoma Prevention with Celecoxib (APC) trial, recurrent adenomas at 36 months; format: in vivo, human; conditions: 16 individuals, 36 months of daily celecoxib
Excerpt: To test this hypothesis, we examined frozen biopsies of rectal mucosa obtained from 16 individuals at the time of their enrollment in the Adenoma Prevention with Celecoxib (APC) trial (Bertagnolli, M. M. et al., (2006) N Engl J Med 355, 873-84). These individuals were all at high risk for colon adenoma development based on having had multiple colon adenomas and/or adenomas greater than 5 mm in diameter prior to their enrollment. Following clearing of their colonic adenomas by colonoscopy, each individual received 36-months of daily treatment with celecoxib (Bertagnolli, M. M. et al., (2006) N Engl J Med 355, 873-84). […] In total 9 new adenomas were detected in these patients (FIG. 3). 15-PGDH levels among individuals who developed new adenomas were lower than 15-PGDH levels among individuals who remained adenoma free (P=0.04) (FIG. 3). […] The relationship of low 15-PGDH level to celecoxib resistance becomes even stronger if analyzed in terms of the numbers of new adenomas that individuals developed, with 8 of the 9 adenomatous polyps that recurred during celecoxib treatment arising in individuals with colonic 15-PGDH values below the cohort median (P=0.01), and with all 9 new adenomas arising in individuals with colonic 15-PGDH below the cohort mean (P=0.001) (FIG. 3). […]

[1] = Celecoxib tissue levels in colonic mucosa by LC/MS/MS; format: in vivo, mouse; conditions: 2 weeks celecoxib supplemented diet, mean ± SEM
Experimental: Mouse studies were conducted in the Case Animal Resource Center under a protocol approved by the Institutional Animal Care and Use Committee. 15-Hydroxyprostaglandin dehydrogenase (15-PGDH) knockout mice on a C57BL/6J background were generated as described previously (Myung, S. J. et al., (2006) Proc Natl Acad Sci USA 103, 12098-102; Coggins, K. G. et al, (2002) Nat Med 8, 91-2) and were bred to generation F8 onto an FVB/N (Jackson Laboratory, Bar Harbor, Me.) background, with genotyping done as previously described (Myung, S. J. et al., (2006) Proc Natl Acad Sci U S A 103, 12098-102). 15-PGDH +/− mice generation F8 were intercrossed and siblings of 15-PGDH +/+ and −/− genotypes were selected out for studies with AOM and celecoxib. Eight- to 12-week-old mice were administered AOM by i.p. injection once weekly for 6 weeks at 10mg/kg dose (Sigma Chemical Co., St. Louis, Mo.). Mice were euthanized 24 weeks after the last AOM injection. […]
Following 2 weeks of control or celecoxib supplemented diet mice were euthanized. […] The celecoxib level in the samples was determined by LC/MS/MS. […] Celecoxib was detected and quantified by operating the mass spectrometer in electrospray negative ion mode and monitoring the transition m/z 380.2>316.1. Quantification was done by comparing the sample peak areas to a standard curve and concentration of celecoxib was normalized by protein concentration.

AOM induced colon tumors = assay: AOM induced colon tumor development in FVB mice on dietary celecoxib; format: in vivo, mouse; conditions: for AOM induced colon tumors per mouse / AOM induced large colon tumors (>1 mm) per mouse: mean ± SEM
Excerpt: To conduct this study FVB mice were selected, chosen because at baseline this mouse strain is sensitive to AOM induced colon tumors (Nambiar, P. R. et al., (2003) Int J Oncol 22, 145-50). In 15-PGDH wild-type FVB mice, AOM induced 2.3±0.4 tumors per mouse colon (FIG. 1A, 1C), which on histology review were all adenomatous lesions. As in human trials, administering dietary celecoxib protected wild-type FVB mice against colon tumor development, reducing adenoma development to 0.7±0.3 tumors per mouse (P=0.003) (FIG. 1A, 1C). Furthermore, while nearly all tumors arising in control mice exceeded 1 mm in size, tumors in celecoxib treated mice rarely reached this size (2.2±0.4 versus 0.3±0.1, P<0.0001) (FIG. 1B).
Dietary celecoxib could thus near completely protect wild-type FVB mice from developing colon tumors. […] Thus, celecoxib treated 15-PGDH null mice developed 5.5-fold more colon adenomas than did their celecoxib treated 15-PGDH wild-type littermates (3.9±0.8 versus 0.7±0.3, P=0.0001) (FIG. 1A, 1C). Moreover, all colonic adenomas arising in celecoxib treated knockout mice were large, each exceeding 1 mm in size; whereas, large tumors were nearly completely absent in celecoxib treated 15-PGDH wild-type mice (3.9±0.8 large tumors per knockout mouse versus 0.3±0.1 per wild-type, P=0.0001) (FIG. 1B, 1C). By several measures, 15-PGDH knockout mice were almost completely resistant to the colon tumor prevention effects of celecoxib. […] Moreover, colon tumor development in celecoxib treated 15-PGDH knockout mice actually exceeded that of drug untreated wild-type mice (3.9±0.8 versus 2.2±0.4 respectively, for tumors >1 mm in size, P=0.04; and, 3.9±0.8 versus 2.3±0.4 respectively tumors of any size, P=0.06) (FIG. 1A, 1B). We conclude that celecoxib mediated colon tumor prevention requires concurrent presence of the prostaglandin inactivating activity of colonic 15-PGDH, and that 15-PGDH loss confers in vivo resistance to this drug effect.
Mouse studies were conducted in the Case Animal Resource Center under a protocol approved by the Institutional Animal Care and Use Committee. 15-Hydroxyprostaglandin dehydrogenase (15-PGDH) knockout mice on a C57BL/6J background were generated as described previously (Myung, S. J. et al., (2006) Proc Natl Acad Sci USA 103, 12098-102; Coggins, K. G. et al, (2002) Nat Med 8, 91-2) and were bred to generation F8 onto an FVB/N (Jackson Laboratory, Bar Harbor, Me.) background, with genotyping done as previously described (Myung, S. J. et al., (2006) Proc Natl Acad Sci U S A 103, 12098-102). 15-PGDH +/− mice generation F8 were intercrossed and siblings of 15-PGDH +/+ and −/− genotypes were selected out for studies with AOM and celecoxib. Eight- to 12-week-old mice were administered AOM by i.p. injection once weekly for 6 weeks at 10mg/kg dose (Sigma Chemical Co., St. Louis, Mo.). Mice were euthanized 24 weeks after the last AOM injection. After euthanizing, the colons were opened longitudinally, rinsed with ice-cold PBS, and examined under a dissecting microscope to identify all tumors. Tumors were resected, fixed in 10% neutral buffered formalin, and paraffin-embedded for histologic examination. All mice received an AIN-76A diet (Harlan Teklad, Madison, Wis.). The diet of celecoxib treated mice was supplemented with 1250 mg/kg of this agent (LKT laboratories, St. Paul, Minn.) (Williams, C. S. et al., (2000) Cancer Res 60, 6045-51). In AOM studies, celecoxib supplementation was initiated starting the day of first AOM injection and continued throughout the lifetime of the mouse. In studies of colonic prostaglandin levels celecoxib was administered to a cohort of 8-12 week old mice continuously for 2 weeks, at which time mice were euthanized.
Prostaglandin and celecoxib levels were log transformed in order to be approximately normally distributed for analysis with a generalized linear regression model with contrasts, generating two-sided P-values. […]

PGE2 = assay: Colonic mucosal PGE2 levels by LC/MS/MS after 2 weeks of celecoxib diet; format: in vivo, mouse; conditions: 2 weeks celecoxib diet, mean ± SEM
Experimental: To further investigate the mechanism of celecoxib's dependence on 15-PGDH, we determined PGE2 levels in colonic mucosa of FVB mice under different experimental conditions. Consistent with the role of 15-PGDH in mediating prostaglandin degradation, 15-PGDH gene knockout essentially doubled FVB colonic PGE2 levels (9.1±1.5 ng/mg protein in knockouts versus 5.70±0.8 ng/mg protein in controls, P=0.04) (FIG. 1D). […] In contrast, in 15-PGDH knockout mice the biochemical activity of celecoxib was much attenuated, with the drug lowering PGE2 levels to only 4.7±0.8 ng/mg protein. […] In overview, the efficacy of celecoxib in lowering colonic PGE2 levels in these different models closely paralleled the drug's anti-tumor activity (FIG. 1D versus FIG. 1A, 1B), and mice that lacked 15-PGDH equally acquired resistance to celecoxib's biochemical activity of lowering colonic PGE2 and to celecoxib's phenotypic effect of preventing colon tumors. Celecoxib resistance of 15-PGDH null mice was not due to any change in drug absorption or catabolism, as tissue levels of celecoxib were indistinguishable between drug treated 15-PGDH wild-type and null mice (39.5±9.7 versus 37.7±7.6 ng/mg protein, P=0.7) (FIG. 2A). […] Rather, the effective depletion of colonic PGE2 required the COX-2 inhibitor drug to act in concert with the independent prostaglandin degrading activity of 15-PGDH. […]

| Structure (SMILES) | Effect on 15-PGDH mRNA levels (15-PGDH mRNA) | Total new adenomas detected (colorectal adenomas) | Tissue level of celecoxib in colonic mucosa ([1]; 15-PGDH null mice) | Tissue level of celecoxib in colonic mucosa ([1]; 15-PGDH wild-type mice) | AOM induced colon tumors per mouse (AOM induced colon tumors; 15-PGDH knockout (null) FVB mice, dietary celecoxib) | AOM induced large colon tumors (>1 mm) per mouse (AOM induced colon tumors; 15-PGDH knockout FVB mice, dietary celecoxib) | AOM induced colon tumors per mouse (AOM induced colon tumors; 15-PGDH wild-type FVB mice, dietary celecoxib 1250 mg/kg diet) | AOM induced large colon tumors (>1 mm) per mouse (AOM induced colon tumors; 15-PGDH wild-type FVB mice, dietary celecoxib) | Prevention of AOM induced tumors >1 mm in size (AOM induced colon tumors; FVB mice (15-PGDH wild-type)) | Colon adenomas in celecoxib treated 15-PGDH null mice relative to celecoxib treated wild-type littermates (AOM induced colon tumors; null versus wild-type, both celecoxib treated) | Colonic mucosal PGE2 level (PGE2; 15-PGDH knockout FVB mice) | Colonic mucosal PGE2 level (PGE2; 15-PGDH wild-type FVB mice) |
| --- | --- | --- | --- | --- | --- | --- | --- | --- | --- | --- | --- | --- |
| C#Cc1cccc(Nc2ncnc3cc(OCCOC)c(OCCOC)cc23)c1 [erlotinib] | induce 15-PGDH mRNA levels | – | – | – | – | – | – | – | – | – | – | – |
| Cc1ccc(-c2cc(C(F)(F)F)nn2-c2ccc(S(N)(=O)=O)cc2)cc1 [celecoxib] | – | 9 | 37.7±7.6 ng/mg protein | 39.5±9.7 ng/mg protein | 3.9±0.8 | 3.9±0.8 large tumors per knockout mouse | 0.7±0.3 tumors per mouse | 0.3±0.1 | 85% | 5.5 fold | 4.7±0.8 ng/mg protein | 1.6±0.4 ng/mg protein |
